Experiments:
[1] = tested on: pithed rats; experiment: Blood pressure response to phenylephrine in pithed rats without/with arginase; type: in vivo; details: for Blood Pressure Increase With Arginase Ave. ± S.D.: after arginase; for difference in pressor response between control and endotoxic animals: phenylephrine 6 µg/Kg
Procedure: Animals were pithed as described in Example 1. Blood pressure measurements were obtained also as described in Example 1. Arginase was also prepared according to the method described in Example 1.
Both left and right jugular veins were cannulated for drug administration; and left jugular was used for bolus administration of phenylephrine and the right jugular vein was used for continuous infusion of arginase. All animals from both groups (Control and Endotoxin) received phenylephrine in sequential doses of 0.3, 1.0, 2.0, or 6.0 ug/Kg.
Endotoxin (15 mg/kg body weight) was given by intravenous injection 6 hrs before the experiment began; arginase (300 I.U./Min. for 20 min.) was given intravenously to each rat after the "Without Arginase" measurements were made.
For the second, third and fourth rats, the blood pressure increments were 14, 32 and 9 before arginase, respectively, and 9, 20 and 10 after arginase, respectively.

[2] = tested on: hypotension associated with the administration of TNF in the dog; experiment: TNF-induced hypotension in the dog; type: in vivo, dogs
Procedure: Recombinant human TNF, specific activity 2 x 10^7 units/mg, was from the Dainippon Chemical Corporation, Tokyo, Japan. TNF was administered at a dose of 10 µg//kg in a volume of 10 ml of phosphate buffered saline containing 17 mg/ml of dog albumin. […] Arginine was obtained from Sigma Chemical Company, St. Louis, Mo.
Four conditioned mongrel dogs, 2 males and 2 females, weighing 28 to 30 kg, were studied. Care of the animals were in accordance with the recommendations of the American Association for Accreditation of Laboratory Animals [DHEW(DHHS) publication no. (NIH) 78-23, revised, 1978]. On the day of the experiment, the dogs were fasted overnight. They were anesthetized with phenobarbital (25 mg/kg). The animals were then intubated orally with a #10 fr. endotracheal tube and ventilated with a Harvard pump ventilator at a rate of 14 breaths per minute and a tidal volume of 15 ml/kg. An arterial line was percutaneously placed in the femoral artery on the day of the experiment.
Mean (electronic) and phasic systemic arterial pressures (SAP) were continuously recorded on a Hewlett-Packard recording system (model 7758B) using strain gauge manometers (Hewlett-Packard model 1290A) which were connected to the arterial line. Heart rate (HR) was determined from an EKG tracing and continuously recorded on the Hewlett-Packard recording system. Oxyhemoglobin saturation (SaO2) was obtained using a pulse oximeter (BIOX 111, Boulder, CO). Continuous time-series records of SAP, HR, and SaO2 were obtained using a Lab Master analog-to-digital convertor (16 channel, 12 bit, 30 kHz; Scientific Solutions, Inc.) sampling at 55 Hz and storing the 6 sec averages on a magnetic disk.

[3] = tested on: ^51Cr-labeled Raji Target cells; experiment: IL-2 mediated lymphokine activated killer cell activity in vitro; type: cell-based, human
[4] = tested on: Actinomycin D-Treated L929 Cells; experiment: Cytolytic activity of rh-TNF against L929 cells; type: cell-based, murine; details: for TNF Activity: without NMMA 594.5
Procedure: TNF bioactivity was measured by the cytotoxicity towards murine L929 cells, in vitro. […]

[5] = tested on: endotoxin-induced shock in dogs; experiment: Endotoxin-induced hypotension in dogs (with nitroglycerin and control dogs); type: in vivo
Procedure: Animals: Studies were carried out on 12 conditioned mongrel dogs (9 males and 3 females) weighing 22-32 kg (avg=25.3 kg). Animal care was in accordance with the recommendations of the American Association for Accreditation of Laboratory Animal Care, and met all standards prescribed by the Guide for the Care and Use of Laboratory Animals (Guide for the Care and Use of Laboratory Animals (1978) Dept. of Health, Education and Welfare, Washington, D.C. (Publ. No. 78-23). Animal protocols were approved by The University of Texas Animal Welfare committee. The dogs were fasted overnight prior to the day of experimentation. They were anesthetized with sodium pentobarbital (25 mg/kg i.v.). Dogs were then endotracheally intubated and ventilated with a piston-driven respirator (Harvard instruments) using room air at a tidal volume of 15 ml/kg and at a rate of 12 to 14 breaths per minute, adjusted to achieve a normal arterial pH and pCO2 (Instrumentation Laboratories lL1302 pH/Blood Gas Analyzer). Catheters were placed percutaneously into the femoral and pulmonary arteries; In the latter, a flow-directed thermal-dilation catheter was used (Abbott Critical Care Systems).
Physiologic measurements: Mean SAP and heart rate were continuously monitored (Parametron 7048 Monitoring System, Roche) and stored on a magnetic disk using an analog-to-digital converter (Scientific Solutions, Inc.). Cardiac output (CO) was determined as the mean of six measurements by thermal-dilution. Systemic vascular resistance was calculated as (SAP X80)/CO and expressed as dynes-sec/cm^5 (kg/s·cm^4).
Protocol: After the blood pressure and heart rate stabilized, endotoxin (40 µg/kg, in 10 ml of phosphate-buffered saline (PBS), pH 7.4) was infused i.v. over 2 minutes. This dose of endotoxin typically induces severe and often lethal cardiovascular collapse in the dog. Blood pressure was monitored, and when either SAP fell below 60 mm Hg or a stable nadir in systemic arterial pressure (SAP) was maintained for 10 minutes, L-NMA was administered (20 mg/kg in 5 ml of PBS i.v. over 1 min.). In most experiments, L-arginine (400 mg/kg in 20 ml PBS) was administered ten minutes later by i.v. infusion over 2 minutes. In control experiments, dogs without prior exposure to endotoxin received L-NMA alone. To simulate the hypotension observed in dogs receiving endotoxin, one group of dogs received a continuous i.v. infusion of nitroglycerin (2 mg/ml) at a rate adjusted to maintain the SAP at 60-70 mm Hg. Nitroglycerin-treated dogs then received L-NMA (20 mg/kg) and 20 minutes later L-arginine was administered ([…]).
Statistics: Statistical significance was evaluated using Student's test and either a one-tailed or two-tailed analysis as appropriate for comparisons.

[6] = Study #1: Control Animals, phenylephrine 0.3 µg/Kg
[7] = Study #1: Control Animals, phenylephrine 1.0 µg/Kg
[8] = Study #1: Control Animals, phenylephrine 2.0 µg/Kg
[9] = Study #1: Control Animals, phenylephrine 6.0 µg/Kg
[10] = Study #2: Endotoxic Animals, phenylephrine 0.3 µg/Kg
[11] = Study #2: Endotoxic Animals, phenylephrine 1.0 µg/Kg
[12] = Study #2: Endotoxic Animals, phenylephrine 2.0 µg/Kg
[13] = Study #2: Endotoxic Animals, phenylephrine 6.0 µg/Kg
[14] = Study 2: Nitroglycerin-treated dogs (n=3), means ± S.E., baseline 3.14 ± 0.21
[15] = Study 2: Nitroglycerin-treated dogs (n=3), means ± S.E., baseline 143.7 ± 12.1
[16] = Study 2: Nitroglycerin-treated dogs (n=3), means ± S.E., baseline 3294 ± 74
[17] = Study 2: Nitroglycerin-treated dogs (n=3), means ± S.E., continuous nitroglycerin (2 mg/ml) titrated to SAP 65 mm Hg, then L-NMA 20 mg/kg, then L-arginine, baseline 129.3 ± 10.2
[18] = Study 2: Nitroglycerin-treated dogs (n=3), value in brackets

## CNC[C@H](O)c1cccc(O)c1 [Phenylephrine, phenylephrine]
[1]; [6]
  Blood Pressure Increase Without Arginase Ave. ± S.D.: 17.8 ± 5.0 mm Hg
  Blood Pressure Increase With Arginase Ave. ± S.D.: 13.3 ± 2.5 mm Hg
[1]; [7]
  Blood Pressure Increase Without Arginase Ave. ± S.D.: 31.3 ± 4.0 mm Hg
  Blood Pressure Increase With Arginase Ave. ± S.D.: 22.5 ± 6.1 mm Hg
[1]; [8]
  Blood Pressure Increase Without Arginase Ave. ± S.D.: 51.0 ± 6.6 mm Hg
  Blood Pressure Increase With Arginase Ave. ± S.D.: 38.8 ± 9.1 mm Hg
[1]; [9]
  Blood Pressure Increase Without Arginase Ave. ± S.D.: 93.0 ± 10.3 mm Hg
  Blood Pressure Increase With Arginase Ave. ± S.D.: 79.8 ± 13.4 mm Hg
[1]; [10]
  Blood Pressure Increase Without Arginase Ave. ± S.D.: 2.2 ± 0.7 mm Hg
  Blood Pressure Increase With Arginase Ave. ± S.D.: 2.0 ± 0.6 mm Hg
[1]; [11]
  Blood Pressure Increase Without Arginase Ave. ± S.D.: 7.0 ± 1.1 mm Hg
  Blood Pressure Increase With Arginase Ave. ± S.D.: 9.0 ± 1.8 mm Hg
[1]; [12]
  Blood Pressure Increase Without Arginase Ave. ± S.D.: 13.6 ± 2.6 mm Hg
  Blood Pressure Increase With Arginase Ave. ± S.D.: 23.3 ± 5.3 mm Hg
[1]; [13]
  Blood Pressure Increase Without Arginase Ave. ± S.D.: 33.7 ± 9.6 mm Hg
  Blood Pressure Increase With Arginase Ave. ± S.D.: 48.5 ± 7.6 mm Hg
[1]; animals given arginase
  difference in pressor response between control and endotoxic animals: 31.3 mm Hg
[1]; animals not given arginase
  difference in pressor response between control and endotoxic animals: 59.3 mm Hg

## CNC(=N)NCCC[C@H](N)C(=O)O [NMMA, N^ω-methyl-L-arginine]
[2]; NMMA alone to untreated dogs (n=3)
  duration of NMMA-induced bradycardia: 31 min
[2]; NMMA alone to untreated dogs (n=3), within 2 minutes after infusion
  blood pressure increase: 12 mm Hg
[2]; NMMA in dogs infused with nitroglycerin 28 µg/kg/minute IV
  blood pressure increase: 14 mm
[2]; dog with severe TNF hypotension, 4.4 mg NMMA/kg, Figure 4a
  increase in blood pressure after administration of NMMA: 80 mm Hg
[2]; dogs made hypotensive with TNF
  time to pressor effect of NMMA: ≤ 2 min
[3]; [NMMA] 2.0 mM, same effector cells, without NMMA 66.1 ± 9.5
  % Target Cell Lysis: 75.1 ± 4.1%
[3]; in vitro
  effect on the proliferation phase or the lytic phase of human LAK cells exposed to IL-2: did not alter
[4]; [NMMA] 0.125 mM
  TNF Activity: 536.9 Units/ml
[4]; [NMMA] 0.250 mM
  TNF Activity: 538.2 Units/ml
[4]; [NMMA] 0.500 mM
  TNF Activity: 562.4 Units/ml
[4]; [NMMA] 1.0 mM
  TNF Activity: 415.7 Units/ml
[4]; murine L929 cells
  effect on the cytolytic effect of TNF towards tumor cells in vitro: did not alter
[5]; Figure 6 dog, endotoxin
  time SAP maintained greater than 100 mm Hg by second dose of L-NMA: 2 h
  time blood pressure was maintained by the first dose of L-NMA: 48 min
[5]; Figure 6 dog, endotoxin hypotension 47 mm Hg, L-NMA 20 mg/kg, within 10 min
  increase in SAP: 73 mm Hg
[5]; Study 1: Endotoxin-treated dogs (n=4), means ± S.E., same sequence, baseline 2.99 ± 0.32
  Cardiac Output: 2.03 ± 0.32 L/min
[5]; Study 1: Endotoxin-treated dogs (n=4), means ± S.E., same sequence, baseline 119.5 ± 6.0
  Heart Rate: 123.3 ± 4.8 beats/min
[5]; Study 1: Endotoxin-treated dogs (n=4), means ± S.E., same sequence, baseline 3565 ± 454
  Systemic Vascular Resistance: 4462 ± 552 dynes-sec/cm^5
[5]; Study 1: Endotoxin-treated dogs (n=4), means ± S.E., sequence endotoxin 40 µg/kg, L-NMA 20 mg/kg, 10 min later L-arginine 400 mg/kg (measured 2 min later), baseline 128.3 ± 9.4
  Systemic Arterial Pressure: 107.3 ± 9.6 mmHg
[5]; Study 1: Endotoxin-treated dogs (n=4), means ± S.E., value in brackets
  Systemic Vascular Resistance: 4.462 ± 0.552 Kg/s·cm^4
[5]; [14]
  Cardiac Output: 3.85 ± 0.80 L/min
[5]; [15]
  Heart Rate: 191.7 ± 35.0 beats/min
[5]; [16]
  Systemic Vascular Resistance: 1858 ± 399 dynes-sec/cm^5
[5]; [17]
  Systemic Arterial Pressure: 81.8 ± 3.5 mmHg
[5]; [18]
  Systemic Vascular Resistance: 1.858 ± 0.399 Kg/s·cm^4
[5]; control dogs not treated with endotoxin, L-NMA alone
  increase in SAP: 24.8 ± 2.7 mm Hg
[5]; control dogs without endotoxin (n=4), means±S.E., L-NMA, baseline 129.0±10.9
  Systemic Arterial Pressure: 153.8±11.4 mm Hg
[5]; control dogs without endotoxin (n=4), means±S.E., baseline 3.54±0.68
  Cardiac Output: 2.12 ± 0.26 L/min
[5]; control dogs without endotoxin (n=4), means±S.E., baseline 121±17.9
  Heart Rate: 82.5±6.1 beats/min
[5]; control dogs without endotoxin (n=4), means±S.E., baseline 3115±347
  Systemic Vascular Resistance: 5967±523 dynes-sec/cm^5
[5]; control dogs without endotoxin (n=4), value in brackets
  Systemic Vascular Resistance: 5.967±0.523 Kg/cm^4·s
[5]; dogs with blood pressure reduced to 65 mm Hg by continuous i.v. nitroglycerin, L-NMA 20mg/kg
  change in blood pressure: 17.1±5.0 mm Hg
[5]; endotoxin-treated dog, additional dose of L-NMA (20 mg/kg) when blood pressure began to decrease
  duration normal blood pressure maintained: at least 2 hours
[5]; endotoxin-treated dog, single i.v. dose of L-NMA (20 mg/kg)
  duration normal blood pressure restored: 30 to 60 min
[5]; endotoxin-treated dogs, L-NMA 20 mg/kg
  HR and CO: unchanged
[5]; endotoxin-treated dogs, L-NMA 20 mg/kg iv
  time to reversal of hypotension by L-NMA: ≤ 1.5 min
[5]; endotoxin-treated dogs, L-NMA 20 mg/kg, p<0.01
  increase in SAP: 47.8 ± 6.8 mm Hg
[5]; two of the four control dogs, L-NMA
  decrease in cardiac output (Δ): ≥ 1.5 L/min

## O=[N+]([O-])OCC(CO[N+](=O)[O-])O[N+](=O)[O-] [Nitroglycerin]
[5]; [14]
  Cardiac Output: 2.72 ± 0.27 L/min
[5]; [15]
  Heart Rate: 137.3 ± 5.0 beats/min
[5]; [16]
  Systemic Vascular Resistance: 1924 ± 132 dynes-sec/cm^5
[5]; [17]
  Systemic Arterial Pressure: 64.7 ± 2.7 mmHg
[5]; [18]
  Systemic Vascular Resistance: 1.924 ± 0.132 Kg/s·cm^4
